In PubChem BioAssay (NCI):
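Five compound concentrations were applied to cells in 96-well plates for 48 hours; endpoints were derived by simple linear interpolation of the resulting dose-response curve. TGI denotes the concentration required for complete inhibition of growth.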

Legend:
Assay in all cases: NCI-60 cell line screen, 48 h
MOLT-4 leukemia = test system: MOLT-4 leukemia
MDA-N = test system: MDA-N
SF-268 CNS = test system: SF-268 CNS
SNB-19 CNS = test system: SNB-19 CNS
LOX IMVI melanoma = test system: LOX IMVI melanoma
ACHN renal = test system: ACHN renal
SW-620 colon = test system: SW-620 colon
MDA-MB-435 = test system: MDA-MB-435
SNB-75 CNS = test system: SNB-75 CNS
SK-MEL-5 melanoma = test system: SK-MEL-5 melanoma
HOP-92 NSCLC = test system: HOP-92 NSCLC
UACC-257 melanoma = test system: UACC-257 melanoma
NCI-H460 lung = test system: NCI-H460 lung
HOP-62 NSCLC = test system: HOP-62 NSCLC
HL-60(TB) leukemia = test system: HL-60(TB) leukemia
K-562 leukemia = test system: K-562 leukemia
TK-10 renal = test system: TK-10 renal
SR leukemia = test system: SR leukemia
NCI-H23 lung = test system: NCI-H23 lung
MALME-3M melanoma = test system: MALME-3M melanoma
NCI/ADR-RES ovarian = test system: NCI/ADR-RES ovarian
COLO 205 colon = test system: COLO 205 colon
RPMI-8226 leukemia = test system: RPMI-8226 leukemia
OVCAR-8 ovarian = test system: OVCAR-8 ovarian
HCT-15 colon = test system: HCT-15 colon
HT29 colon = test system: HT29 colon
HS 578T breast = test system: HS 578T breast
786-0 renal = test system: 786-0 renal
EKVX NSCLC = test system: EKVX NSCLC
CAKI-1 renal = test system: CAKI-1 renal
KM12 colon = test system: KM12 colon
SF-295 CNS = test system: SF-295 CNS
MCF7 breast = test system: MCF7 breast
OVCAR-5 ovarian = test system: OVCAR-5 ovarian
SK-MEL-28 melanoma = test system: SK-MEL-28 melanoma
SK-MEL-2 melanoma = test system: SK-MEL-2 melanoma
M14 melanoma = test system: M14 melanoma
UO-31 renal = test system: UO-31 renal
OVCAR-3 ovarian = test system: OVCAR-3 ovarian
RXF 393 renal = test system: RXF 393 renal
A498 renal = test system: A498 renal
HCC-2998 colon = test system: HCC-2998 colon
BT-549 breast = test system: BT-549 breast
A549 NSCLC = test system: A549 NSCLC
OVCAR-4 ovarian = test system: OVCAR-4 ovarian
UACC-62 melanoma = test system: UACC-62 melanoma
HCT-116 colon = test system: HCT-116 colon
NCI-H522 lung = test system: NCI-H522 lung
IGROV1 ovarian = test system: IGROV1 ovarian
U251 CNS = test system: U251 CNS
T-47D breast = test system: T-47D breast
SK-OV-3 ovarian = test system: SK-OV-3 ovarian
MDA-MB-231 breast = test system: MDA-MB-231 breast
SN12C renal = test system: SN12C renal
DU-145 prostate = test system: DU-145 prostate
NCI-H226 lung = test system: NCI-H226 lung
PC-3 prostate = test system: PC-3 prostate

C=CCNC1=C2C[C@@H](C)C[C@@H](OC)[C@H](OC(=O)CCN)[C@H](C)/C=C(\C)[C@@H](OC(N)=O)[C@H](OC)/C=C\C=C(/C)C(=O)NC(=CC1=O)C2=O
TGI (MOLT-4 leukemia): 12.7 µM
TGI (MDA-N): 11.2 µM
TGI (SF-268 CNS): 25.5 µM
TGI (SNB-19 CNS): 20.9 µM
TGI (LOX IMVI melanoma): 10.8 µM
TGI (ACHN renal): 25.2 µM
TGI (SW-620 colon): > 100 µM
TGI (MDA-MB-435): 13.4 µM
TGI (SNB-75 CNS): 9.63 µM
TGI (SK-MEL-5 melanoma): 17.4 µM
TGI (HOP-92 NSCLC): 16.9 µM
TGI (UACC-257 melanoma): 10.3 µM
TGI (NCI-H460 lung): 15.2 µM
TGI (HOP-62 NSCLC): 17.5 µM
TGI (HL-60(TB) leukemia): 17.9 µM
TGI (K-562 leukemia): > 100 µM
TGI (TK-10 renal): 10.5 µM
TGI (SR leukemia): > 100 µM
TGI (NCI-H23 lung): 13 µM
TGI (MALME-3M melanoma): 14.1 µM
TGI (NCI/ADR-RES ovarian): > 100 µM
TGI (COLO 205 colon): 10.1 µM
TGI (RPMI-8226 leukemia): 32.5 µM
TGI (OVCAR-8 ovarian): 18.4 µM
TGI (HCT-15 colon): 23.7 µM
TGI (HT29 colon): 18.7 µM
TGI (HS 578T breast): 52.9 µM
TGI (786-0 renal): 17 µM
TGI (EKVX NSCLC): 36.4 µM
TGI (CAKI-1 renal): 25.6 µM
TGI (KM12 colon): 11.2 µM
TGI (SF-295 CNS): 14.1 µM
TGI (MCF7 breast): 7.71 µM
TGI (OVCAR-5 ovarian): 23.3 µM
TGI (SK-MEL-28 melanoma): 44.2 µM
TGI (SK-MEL-2 melanoma): 7.12 µM
TGI (M14 melanoma): 17.3 µM
TGI (UO-31 renal): 24.2 µM
TGI (OVCAR-3 ovarian): 6.56 µM
TGI (RXF 393 renal): 15.1 µM
TGI (A498 renal): 17.6 µM
TGI (HCC-2998 colon): 3.61 µM
TGI (BT-549 breast): 21.2 µM
TGI (A549 NSCLC): 18.5 µM
TGI (OVCAR-4 ovarian): 21.3 µM
TGI (UACC-62 melanoma): 12.3 µM
TGI (HCT-116 colon): 13.6 µM
TGI (NCI-H522 lung): 20.2 µM
TGI (IGROV1 ovarian): 19.6 µM
TGI (U251 CNS): 18.8 µM
TGI (T-47D breast): 15.5 µM
TGI (SK-OV-3 ovarian): 11 µM
TGI (MDA-MB-231 breast): 17.7 µM
TGI (SN12C renal): 16.2 µM
TGI (DU-145 prostate): 16 µM

N#Cc1c(N)nc(-c2ccc(Cl)cc2)c2c1-c1ccccc1S(=O)(=O)CC2
TGI (MDA-N): > 100 µM
TGI (SF-268 CNS): > 100 µM
TGI (SNB-19 CNS): 93.9 µM
TGI (LOX IMVI melanoma): > 100 µM
TGI (ACHN renal): > 100 µM
TGI (SW-620 colon): > 100 µM
TGI (MDA-MB-435): > 100 µM
TGI (SNB-75 CNS): > 100 µM
TGI (SK-MEL-5 melanoma): > 100 µM
TGI (HOP-92 NSCLC): > 100 µM
TGI (UACC-257 melanoma): > 100 µM
TGI (NCI-H460 lung): > 100 µM
TGI (HOP-62 NSCLC): > 100 µM
TGI (K-562 leukemia): > 100 µM
TGI (TK-10 renal): > 100 µM
TGI (SR leukemia): > 100 µM
TGI (NCI-H23 lung): > 100 µM
TGI (MALME-3M melanoma): > 100 µM
TGI (NCI/ADR-RES ovarian): > 100 µM
TGI (COLO 205 colon): > 100 µM
TGI (RPMI-8226 leukemia): > 100 µM
TGI (OVCAR-8 ovarian): > 100 µM
TGI (HCT-15 colon): > 100 µM
TGI (NCI-H226 lung): > 100 µM
TGI (HT29 colon): > 100 µM
TGI (HS 578T breast): > 100 µM
TGI (786-0 renal): > 100 µM
TGI (CAKI-1 renal): > 100 µM
TGI (KM12 colon): > 100 µM
TGI (OVCAR-5 ovarian): > 100 µM
TGI (SK-MEL-28 melanoma): > 100 µM
TGI (SK-MEL-2 melanoma): > 100 µM
TGI (M14 melanoma): > 100 µM
TGI (UO-31 renal): > 100 µM
TGI (OVCAR-3 ovarian): > 100 µM
TGI (A498 renal): > 100 µM
TGI (HCC-2998 colon): > 100 µM
TGI (BT-549 breast): > 100 µM
TGI (A549 NSCLC): > 100 µM
TGI (OVCAR-4 ovarian): > 100 µM
TGI (UACC-62 melanoma): > 100 µM
TGI (PC-3 prostate): > 100 µM
TGI (HCT-116 colon): > 100 µM
TGI (NCI-H522 lung): > 100 µM
TGI (IGROV1 ovarian): > 100 µM
TGI (U251 CNS): > 100 µM
TGI (T-47D breast): > 100 µM
TGI (MDA-MB-231 breast): > 100 µM
TGI (SN12C renal): > 100 µM
TGI (DU-145 prostate): > 100 µM
